Patent publication US20250090498A1, “TREATMENT OF PRIMARY CTLA-4 CHECKPOINT RELATED IMMUNODEFICIENCIES” (ADIENNE PHARMA & BIOTECH SA, priority 2023, published 2025)
Blank lines part the entries; values can stand above or below the compound they belong to.

How the values were obtained:
[1] = biological target: T1, AhR (Homo sapiens, UniProt P35869); experiment: Cyp1A1 induction in HepG2 liver cancer cell line; format: cell-based; set-up: endogenous in cells; host or cells: HepG2, A549, Calu-3, CaCo-2; settings: for induction of the AhR activation marker Cyp1A1 (mRNA): between 1 and 100 μM
T1 sequence (P35869 11-848): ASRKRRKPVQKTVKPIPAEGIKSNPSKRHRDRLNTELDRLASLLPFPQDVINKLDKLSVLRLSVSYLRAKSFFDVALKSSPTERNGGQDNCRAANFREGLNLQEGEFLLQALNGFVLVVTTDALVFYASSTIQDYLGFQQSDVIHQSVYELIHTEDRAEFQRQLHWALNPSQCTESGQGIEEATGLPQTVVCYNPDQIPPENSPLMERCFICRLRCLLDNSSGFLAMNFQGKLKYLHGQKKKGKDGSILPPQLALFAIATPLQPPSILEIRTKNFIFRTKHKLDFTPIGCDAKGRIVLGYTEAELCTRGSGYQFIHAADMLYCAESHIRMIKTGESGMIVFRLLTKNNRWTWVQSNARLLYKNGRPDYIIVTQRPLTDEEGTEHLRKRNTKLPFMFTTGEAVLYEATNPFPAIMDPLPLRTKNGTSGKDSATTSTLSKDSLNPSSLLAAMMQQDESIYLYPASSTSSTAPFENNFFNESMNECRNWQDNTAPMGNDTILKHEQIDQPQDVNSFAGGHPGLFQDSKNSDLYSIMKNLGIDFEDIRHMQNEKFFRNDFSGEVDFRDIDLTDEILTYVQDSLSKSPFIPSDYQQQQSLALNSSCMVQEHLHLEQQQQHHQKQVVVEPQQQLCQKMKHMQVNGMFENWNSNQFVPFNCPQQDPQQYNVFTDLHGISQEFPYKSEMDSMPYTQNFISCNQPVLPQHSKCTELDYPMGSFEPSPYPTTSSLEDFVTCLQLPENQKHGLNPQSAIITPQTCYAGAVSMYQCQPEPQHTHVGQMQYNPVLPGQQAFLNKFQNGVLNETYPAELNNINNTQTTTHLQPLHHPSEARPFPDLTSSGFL
Text: FIG. 14 graphically represents Cypla1 mRNA fold increase with the addition of 3-IAld or Ox-3-IAld.

[2] = single-dose pharmacokinetic study in healthy C57BL/6 mice, tissues and serum by mass spectrometry
Protocol: A single-dose pharmacokinetic (PK) study was performed on healthy C57BL/6 mice to compare 1ME3CA and 3-IAld at 0.36 mg/topo dose. Untreated naïve mice were used as the control. […] Blood, obtained by cardiac puncture and collected into EDTA-containing tubes, and organs (brain, lung, intestine, liver and kidney) were assessed. All samples were stored at −80° C. until use. To evaluate 1ME3CA and 3-IAld for functional activity, the expression of AhR-downstream genes were concomitantly evaluated in these mice.

[3] = preliminary pharmacokinetics in serum after Eudragit-formulated 3-IAld (90% 3-IAld/10% 13C8-labeled 3-IAld), mass spectrometry; format: in vivo
Protocol: Primary pharmacodynamics studies have been performed. The mode of action of 3-IAld occurs upon binding to AhR, both in vitro and in vivo. In vitro, 3-IAld induced luciferase activity in the H1L1.1c2 cell line containing a stably-transfected AhR-responsive firefly luciferase at the dose range […] (Zelante et al, 2013). […] Preliminary pharmacokinetics data have been obtained by administration of Eudragit-formulated 3-IAld in the composition 90% 3-IAld/10% 13C8-labeled 3-IAld and targeted/untargeted analysis by mass spectrometry in serum at different times (30 minutes (min), 1 hour (h), 2 h, 4.5h, 6 h, 24h). […] The presence of indole-3-formic acid was also confirmed with labelled 3-IAld (FIG. 13E), showing a similar kinetics and a peak level of about 25 μM at 30 min.

pharmacological activity in vitro [1]: pharmacologically active
concentrations in all organs ([2]; after enteric 1ME3CA 18 mg/Kg): basal
clearance of metabolites from the organs ([2]; after oral 3-IAld 18 mg/Kg): rapid clearance
presence as metabolite of 3-IAld in serum and other tissues ([2]; after oral 3-IAld 18 mg/Kg): main metabolite
SMILES: O=C(O)c1c[nH]c2ccccc12 [indole-3-formic acid]
induction of the AhR activation marker Cyp1A1 (mRNA) [1]: induce the AhR activation marker Cyp1A1 in a dose-dependent manner
induction of the AhR activation marker Cyp1A1 (mRNA) ([1]; listed as Ox-3-IAld): induction of the AhR activation marker Cyp1A1 in a dose-dependent manner

serum level of methylated forms of indole-3-formic acid at 1 hour ([3]; in vivo): reduced levels
SMILES: COC(=O)c1c[nH]c2ccccc12 [Methyl indole-3-carboxylate]

serum level of methylated forms of indole-3-formic acid at 1 hour ([3]; 1 hour after 3-IAld): reduced levels
peak serum level of methylated forms of indole-3-formic acid ([3]; at 30 minutes after 3-IAld): about 150 nM
SMILES: Cn1c(C(=O)O)cc2ccccc21 [1-Methylindole-2-carboxylic acid]
